The record followed here is patent US12577234B2, “Antagonists of the muscarinic acetylcholine receptor M4” (Vanderbilt University, priority 2017, dated 2026).

The target in this experiment is T1, human mAChR M4 (Homo sapiens, UniProt P08173).
T1 construct: expressed in transfected cells; host or cells: CHO-K1 (ATCC), stably co-expressing chimeric G protein Gqi5
T1 sequence (P08173 1-479): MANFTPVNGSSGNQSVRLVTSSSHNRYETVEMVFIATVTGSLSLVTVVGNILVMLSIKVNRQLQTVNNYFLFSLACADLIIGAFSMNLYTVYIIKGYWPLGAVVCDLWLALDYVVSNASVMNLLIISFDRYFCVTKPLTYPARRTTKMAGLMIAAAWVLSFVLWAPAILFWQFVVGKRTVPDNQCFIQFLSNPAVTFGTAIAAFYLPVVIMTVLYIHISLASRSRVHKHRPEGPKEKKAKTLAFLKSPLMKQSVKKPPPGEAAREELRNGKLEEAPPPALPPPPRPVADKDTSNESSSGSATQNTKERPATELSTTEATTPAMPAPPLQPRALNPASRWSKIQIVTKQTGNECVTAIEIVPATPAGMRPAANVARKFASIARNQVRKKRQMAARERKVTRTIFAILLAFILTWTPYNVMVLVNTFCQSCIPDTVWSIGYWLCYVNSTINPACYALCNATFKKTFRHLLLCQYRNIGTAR
Kind of experiment: mAChR M4 cell-based functional assay (calcium mobilization, EC80 acetylcholine), human M4. Particulars: for Emin: human M4, % ACh maximum at 30 μM. The procedure, abridged:
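CHO-K1 cells stably expressing human M4 with chimeric Gqi5; intracellular calcium rise read on FDSS as fluorescence static ratio at 1 Hz. Compounds in 10-point 1:3 dilution series; IC50 taken as concentration-dependent decrease of the EC80 acetylcholine response, four-parameter logistic fit.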
(A change in cytosolic calcium serves as a functional read-out for many receptors and channels.)

The mark [1] stands for this setting: Table 9, M4/Gqi5/CHO-K1 cells, decrease of EC80 acetylcholine response.
The mark [2] stands for this setting: Table 10, M4/Gqi5/CHO-K1 cells, decrease of EC80 acetylcholine response.

Bounds are passed on as bounds.

As usually defined, the IC50 is the concentration that gives 50% inhibition.

Regarding `Cc1cnn(C)c1-c1ccc(OCC2C[C@@H]3CN(Cc4ccc5c(c4)OCO5)C[C@@H]3C2)nn1` (stereo partly drawn) [Compound 91, (3aR,6aS)-2-(1,3-benzodioxol-5-ylmethyl)-5-[[6-(2,4-dimethylpyrazol-3-yl)pyridazin-3-yl]oxymethyl]-3,3a,4,5,6,6a-hexahydro-1H-cyclopenta[c]pyrrole], the IC50 under setting [1] turned out to be 0.371 µM. Moreover, the Emin (Table 9) worked out at 4.18%.

Turning to `Cc1cnn(C)c1-c1ccc(OC[C@@H]2C[C@@H]3CN(CCC(C)(C)C)C[C@@H]3C2)nn1` [Compound 147, (3aR,5r,6aS)-2-(3,3-dimethylbutyl)-5-[[6-(2,4-dimethylpyrazol-3-yl)pyridazin-3-yl]oxymethyl]-3,3a,4,5,6,6a-hexahydro-1H-cyclopenta[c]pyrrole], under “Table 10”, the “Human M4 Emin” value amounted to 4%. For the same compound, the IC50 under setting [2] was 0.0424 µM.

In the case of `Cc1nn(C)cc1-c1ccc(O[C@@H]2C[C@@H]3CN(CC4CCOCC4)C[C@@H]3C2)nn1` [Compound 50, (3aR,5r,6aS)-5-[6-(1,3-dimethylpyrazol-4-yl)pyridazin-3-yl]oxy-2-(tetrahydropyran-4-ylmethyl)-3,3a,4,5,6,6a-hexahydro-1H-cyclopenta[c]pyrrole], the IC50 under setting [1] turned out to be 6.03 µM. For the same compound, the Emin (Table 9) is recorded as 15.6%.

Turning to `Cc1nn(C)cc1-c1ccc(N[C@H]2C[C@@H]3CN(Cc4ccccn4)C[C@@H]3C2)nn1` [Compound 9, (3aR,5s,6aS)-N-[6-(1,3-dimethylpyrazol-4-yl)pyridazin-3-yl]-2-(2-pyridylmethyl)-3,3a,4,5,6,6a-hexahydro-1H-cyclopenta[c]pyrrol-5-amine], the IC50 under setting [1] worked out at 0.0458 µM. Also, where the note is “Table 9”, the Emin was 3.96%.

On to `CCC(C)CN1C[C@H]2CC(COc3ccc(-c4cc(F)ccc4Cl)nn3)C[C@H]2C1` (stereo partly drawn) [Compound 109, (3aR,6aS)-5-[[6-(2-chloro-5-fluoro-phenyl)pyridazin-3-yl]oxymethyl]-2-(2-methylbutyl)-3,3a,4,5,6,6a-hexahydro-1H-cyclopenta[c]pyrrole], for which the IC50 under setting [1] was 0.583 µM. Under “Table 9”, the Emin was 4.62%.

Turning to `CCCC(C)CN1C[C@H]2C[C@H](Nc3ccc(-c4c(C)cnn4C)nn3)C[C@H]2C1` (stereo partly drawn) [Compound 19, (3aR,5s,6aS)-N-[6-(2,4-dimethylpyrazol-3-yl)pyridazin-3-yl]-2-(2-methylpentyl)-3,3a,4,5,6,6a-hexahydro-1H-cyclopenta[c]pyrrol-5-amine], the IC50 under setting [1] is 0.01 µM. Besides, the Emin (Table 9) is 3.11%.

For `CC(=O)Nc1ccc(-c2ccc(O[C@H]3C[C@@H]4CN(Cc5ccc(F)cc5)C[C@@H]4C3)nn2)cc1` [Compound 131, N-[4-[6-[[(3aR,5s,6aS)-2-[(4-fluorophenyl)methyl]-3,3a,4,5,6,6a-hexahydro-1H-cyclopenta[c]pyrrol-5-yl]oxy]pyridazin-3-yl]phenyl]acetamide], the “Human M4 Emin” value (Table 10) is on record as 3%. Further, the IC50 under setting [2] was determined as 0.977 µM.

With `Cc1nn(C)cc1-c1ccc(N[C@H]2C[C@@H]3CN(CC4CC5C=CC4C5)C[C@@H]3C2)nn1` (stereo partly drawn) [Compound 2, (3aR,5s,6aS)-2-(5-bicyclo[2.2.1]hept-2-enylmethyl)-N-[6-(1,3-dimethylpyrazol-4-yl)pyridazin-3-yl]-3,3a,4,5,6,6a-hexahydro-1H-cyclopenta[c]pyrrol-5-amine], the IC50 under setting [1] stood at 0.0003 µM. Besides, where the note is “Table 9”, the Emin was 3.87%.

Consider `Cc1nn(C)cc1-c1ccc(OCC2C[C@@H]3CN(CC4CCCCC4)C[C@@H]3C2)nn1` (stereo partly drawn) [Compound 97, (3aR,6aS)-2-(cyclohexylmethyl)-5-[[6-(1,3-dimethylpyrazol-4-yl)pyridazin-3-yl]oxymethyl]-3,3a,4,5,6,6a-hexahydro-1H-cyclopenta[c]pyrrole], for which, under setting [1], the IC50 was found to be 0.167 µM. For the same compound, under “Table 9”, the Emin stood at 4.44%.

With `Cc1nn(C)cc1-c1ccc(N[C@H]2C[C@@H]3CN(Cc4ccccc4F)C[C@@H]3C2)nn1` [compound 10], under setting [1], the IC50 came to 0.041 µM.

As for `CC(C)(O)c1cccc(-c2ccc(N[C@H]3C[C@@H]4CN(CC5CCOCC5)C[C@@H]4C3)nn2)c1` [Compound 216, 2-[3-[6-[[(3aR,5s,6aS)-2-(tetrahydropyran-4-ylmethyl)-3,3a,4,5,6,6a-hexahydro-1H-cyclopenta[c]pyrrol-5-yl]amino]pyridazin-3-yl]phenyl]propan-2-ol], the “Human M4 Emin” value (Table 10) was determined as 16%. Under setting [2], the IC50 was 0.0213 µM.

Regarding `c1ccc(-c2cnc(N[C@H]3C[C@@H]4CN(CC5CCOCC5)C[C@@H]4C3)s2)cc1` [Compound 230, N-[(3aR,5s,6aS)-2-(tetrahydropyran-4-ylmethyl)-3,3a,4,5,6,6a-hexahydro-1H-cyclopenta[c]pyrrol-5-yl]-5-phenyl-thiazol-2-amine], the “Human M4 Emin” value (Table 10) stood at 41%. The IC50 (Table 10, μM) is over 10 µM.

Regarding `Cc1nn(C)cc1-c1ccc(N[C@H]2C[C@@H]3CN(CCc4ccccc4)C[C@@H]3C2)nn1` [compound 12], the IC50 under setting [1] was determined as 0.004 µM.

Turning to `Cc1nn(C)cc1-c1ccc(NC[C@H]2C[C@@H]3CN(CC4CCCCC4)C[C@@H]3C2)nn1` [Compound 72, N-[[(3aR,5s,6aS)-2-(cyclohexylmethyl)-3,3a,4,5,6,6a-hexahydro-1H-cyclopenta[c]pyrrol-5-yl]methyl]-6-(1,3-dimethylpyrazol-4-yl)pyridazin-3-amine], the IC50 under setting [1] stood at 0.201 µM. Further, the Emin (Table 9) is recorded as 4.02%.

Take `Cc1cccnc1CN1C[C@H]2C[C@H](CNc3ccc(-c4c(C)cnn4C)nn3)C[C@H]2C1` [Compound 68, N-[[(3aR,5s,6aS)-2-[(3-methyl-2-pyridyl)methyl]-3,3a,4,5,6,6a-hexahydro-1H-cyclopenta[c]pyrrol-5-yl]methyl]-6-(2,4-dimethylpyrazol-3-yl)pyridazin-3-amine]: the IC50 under setting [1] stood at 0.618 µM. The Emin (Table 9) is 6.26%.

With `CC(=O)Nc1ccc(-c2cnc(N[C@H]3C[C@@H]4CN(CCC(C)(C)C)C[C@@H]4C3)cn2)cc1` [Compound 156, N-[4-[5-[[(3aR,5s,6aS)-2-(3,3-dimethylbutyl)-3,3a,4,5,6,6a-hexahydro-1H-cyclopenta[c]pyrrol-5-yl]amino]pyrazin-2-yl]phenyl]acetamide], under “Table 10”, the “Human M4 Emin” value was found to be 5%. Also, the IC50 under setting [2] came to 0.192 µM.

Consider `Cc1noc(C)c1-c1ccc(N[C@H]2C[C@@H]3CN(CC4CCOCC4)C[C@@H]3C2)nn1` [Compound 210, (3aR,5s,6aS)-N-[6-(3,5-dimethylisoxazol-4-yl)pyridazin-3-yl]-2-(tetrahydropyran-4-ylmethyl)-3,3a,4,5,6,6a-hexahydro-1H-cyclopenta[c]pyrrol-5-amine], for which, for the setting “Table 10”, the “Human M4 Emin” value is listed as 26%. In addition, the IC50 under setting [2] is 0.0549 µM.

As to `Cc1cnn(C)c1-c1ccc(NC(=O)C2CC3CN(CC(C)C(C)(C)C)CC3C2)nn1` (centres unmarked) [Compound 76, N-[6-(2,4-dimethylpyrazol-3-yl)pyridazin-3-yl]-2-(2,3,3-trimethylbutyl)-3,3a,4,5,6,6a-hexahydro-1H-cyclopenta[c]pyrrole-5-carboxamide], the IC50 under setting [1] turned out to be 1.04 µM. Also, under “Table 9”, the Emin was 4.09%.

For the compound `Fc1ccc(Cl)c(-c2ccc(N[C@H]3C[C@@H]4CN(Cc5cnccn5)C[C@@H]4C3)nn2)c1` [Compound 170, (3aR,5s,6aS)-N-[6-(2-chloro-5-fluoro-phenyl)pyridazin-3-yl]-2-(pyrazin-2-ylmethyl)-3,3a,4,5,6,6a-hexahydro-1H-cyclopenta[c]pyrrol-5-amine], the “Human M4 Emin” value (Table 10) was determined as 5%. The IC50 under setting [2] worked out at 0.0543 µM.

Take `COc1cccc(-c2ccc(N[C@H]3C[C@@H]4CN(CC5CCOCC5)C[C@@H]4C3)nn2)c1` [Compound 200, (3aR,5s,6aS)-N-[6-(3-methoxyphenyl)pyridazin-3-yl]-2-(tetrahydropyran-4-ylmethyl)-3,3a,4,5,6,6a-hexahydro-1H-cyclopenta[c]pyrrol-5-amine]: where the note is “Table 10”, the “Human M4 Emin” value is recorded as 6%. Moreover, the IC50 under setting [2] was 0.004 µM.

Regarding `Cc1nn(C)cc1-c1ccc(O[C@@H]2C[C@@H]3CN(CCC(C)(C)C)C[C@@H]3C2)nn1` [Compound 48, (3aR,5r,6aS)-2-(3,3-dimethylbutyl)-5-[6-(1,3-dimethylpyrazol-4-yl)pyridazin-3-yl]oxy-3,3a,4,5,6,6a-hexahydro-1H-cyclopenta[c]pyrrole], under setting [1], the IC50 turned out to be 0.361 µM. For the setting “Table 9”, the Emin was found to be 3.79%.

For the compound `Fc1ccc(CN2C[C@H]3C[C@H](Nc4ccc(-c5cc(F)ccc5Cl)nn4)C[C@H]3C2)cc1` [Compound 163, (3aR,5s,6aS)-N-[6-(2-chloro-5-fluoro-phenyl)pyridazin-3-yl]-2-[(4-fluorophenyl)methyl]-3,3a,4,5,6,6a-hexahydro-1H-cyclopenta[c]pyrrol-5-amine], under “Table 10”, the “Human M4 Emin” value is 3%. For the same compound, under setting [2], the IC50 was 0.0197 µM.

On to `Fc1ccc(Cl)c(-c2ccc(N[C@H]3C[C@@H]4CN(CC5CCOCC5)C[C@@H]4C3)nn2)c1` [Compound 32, (3aR,5s,6aS)-N-[6-(2-chloro-5-fluoro-phenyl)pyridazin-3-yl]-2-(tetrahydropyran-4-ylmethyl)-3,3a,4,5,6,6a-hexahydro-1H-cyclopenta[c]pyrrol-5-amine], for which the IC50 under setting [1] is 0.0007 µM. The Emin (Table 9) stood at 4.92%.
